Source: patent US20120302569A1, “PHENYL-THIAZOLYL INHIBITORS OF PRO-MATRIX METALLOPROTEINASE ACTIVATION” (priority 2011, published 2012)

Tests used:
[1] = tested on: rats with SCW-induced arthritis; experiment: Efficacy in rats with SCW arthritis (ankle thickness, clinical scores); assay type: in vivo, rat
From the text: A polyarthritis can be induced in female Lewis rats following i.p. administration of streptococcal cell wall (SCW) proteoglycan-polysaccharides (PG-PS) (J Exp Med 1977; 146:1585-1602). The model has an acute phase (days 3-7) that is complement and neutrophil-dependent and that resolves. A chronic erosive phase begins at about day ten and is dependent on the development of specific T cell immunity to the PG-GS, which resists digestion and remains present in synovial macrophages for months. Like rheumatoid arthritis, SCW-induced arthritis is reduced by TNF inhibitors, and the dependence of SCW-induced arthritis on macrophages (Rheumatology; 2001; 40:978-987) and the strong association of rheumatoid arthritis severity with synovial-tissue macrophage counts (Ann Rheum Dis; 2005; 64:834-838) makes SCW-arthritis an attractive model for testing potential therapeutic agents. SCW PG-PS 10S (Beckton Dickinson Cat#210866) suspended in saline was vortexed for 30 seconds and sonicated for 3 min with a probe type sonicator prior to injection. Female Lewis (LEW/N) rats, 5-6 weeks of age (80-100 g) were injected (i.p.) with SCW PG-PS (15 μg of rhamnose/gram BW) in the lower left quadrant of the abdomen using a 1 mL syringe fitted with a 23-gauge needle. Control (disease-free) rats were treated in a similar manner with sterile saline. Control rats were sacrificed on day 5 and groups of SCW-injected rats were sacrificed on day 5 when acute inflammation was maximal or on day 18 when chronic inflammation was established.
To induce arthritis, Female Lewis (LEW/N) rats, 5-6 weeks of age (80-100 g) were injected (i.p.) with SCW PG-PS as described above. Eighteen days later, arthritis was well established. Calipers were used to measure the width (anterior to posterior surface) of the left and right hind ankles of each rat. Each ankle was measured 3 times and averaged, and treatment groups were randomized based on ankle thickness (Table 6). Commencing on day 18, randomized groups of arthritic rats (n=5 rats/group) received vehicle or 5, 20, or 50 mg/kg Compound α BID by oral gavage. Vehicle consisted of an aqueous mixture containing 2% (v:v) N-methylpyrrolidone, 5% (v:v) glycerine, and 20% (w:v) captisol. Treatment continued daily through the morning of day 26.
Hind paw inflammation clinical scores were assigned based on swelling and erythema.

[2] = target: T1, MMP9 (Rattus norvegicus, UniProt P50282); experiment: Active MMP9 in ankles of rats with SCW-induced arthritis by Western blot; assay type: in vivo; conditions: day 26, four hours after AM dose; FIG. 3A lanes 4-9
T1 construct: Pro and active MMP9 were abundantly present in ankles of SCW-induced vehicle-treated rats; from tissue; host or cells: tibia-tarsus joints (ankles) of female Lewis rats
Method: Hind-limbs were skinned, severed just above the tibia-tarsus joint and below the metatarsals, and the tibia-tarsus joints (ankles) were weighed, snap frozen and pulverized on dry ice using a hammer and anvil. The pulverized tissue was suspended in 3 volumes (w:v) of ice-cold homogenization buffer containing 50 mM Tris pH 7.5, 150 mM NaCl, 5 mM EDTA, 1% Triton X100, 0.05% Brij 30, 10% dimethylsulfoxide and Complete EDTA-free Protease Inhibitor Cocktail (Roche Diagnostics). The suspended tissue was homogenized sequentially with a Kinematica AG Polytron and a Dounce homogenizer. Homogenates were centrifuged at 16,000×g for 10 min at 4° C. and the soluble fractions were saved. Dimethylsulfoxide was removed from a portion of each soluble fraction using PD MiniTrap™ G-25 desalting columns (GE Healthcare). Homogenates (0.25 mL), free of DMSO, were diluted with an equal volume of binding buffer (i.e., homogenization buffer without dimethylsufoxide) and adjusted to contain 50 μL of a 50% slurry of gelatin-conjugated sepharose. Following 2 hours of rotation at 4° C. the beads were washed twice in binding buffer and eluted in 100 μL 2×-reducing Laemmli buffer with heating to 95° C. for 5 minutes. […]

[3] = target: T2, proMMP9 (Homo sapiens, UniProt P14780); experiment: Activation of proMMP9 by human fetal lung fibroblast (HFL-1) cultures (Western blot); assay type: cell-based; conditions: 3.3 μM Compound α
T2 construct: host or cells: HFL-1 human fetal lung fibroblasts
Method: Activation of proMMP9 by Human Fetal Lung Fibroblast Cultures
Compound α was assessed additionally for ability to block the maturation of proMMP9 to active MMP9 in cultures of human fetal lung fibroblasts (HFL-1, American Type Culture Collection #CCL-153). Unlike rat synoviocytes, HFL-1 cells were unable to process proMMP9 to the active form without addition of neutrophil elastase. […] Rather, the function of elastase in this assay may be to inactivate tissue inhibitors of matrix metalloproteinases (TIMPs) that repress endogenous pathways of MMP9 activation (Am J Respir Crit. Care Med; 1999; 159:1138-46).
HLF-1 were maintained in monolayer culture in DMEM with 10% FCS and were used between passage numbers 5-15. HLF-1 were embedded in collagen gels as described for rat SCW synoviocytes (vida supra). Half mL gels containing 0.4 million cells were dislodged into wells of 12 well Costar plates containing 1 mL/well of DMEM adjusted to contain 0.05% BSA and 100 ng/mL human TNFα (R&D Systems Cat #210-TA/CF). After overnight culture (37° C. and 5% CO2) wells were adjusted to contain an additional 0.5 mL of DMEM containing 0.05% BSA and with or without 13.2 μM Compound α (final concentration was 3.3 μM Compound α). Next, cultures were adjusted to contain 30 nM human elastase (Innovative Research). The plates were cultured an additional 72 hrs, at which time MMP9 secreted into the conditioned media was bound to gelatin-sepharose and evaluated by Western blot analysis as described for the rat synoviocyte cultures (vida supra). mAb-51/82 detected three forms of MMP9 in HFL-1 cultures.
A second experiment was performed to determine if the 80 kD form was mature active MMP9 and to determine the potency of Compound α as an inhibitor of MMP9 maturation in this assay. HFL-1 cells embedded in collagen gels were cultured as described above in the presence of TNFα overnight and the cultures were then adjusted to contain 30 nM elastase and graded concentrations of Compound α for an additional 72 hrs at which time MMP9 secreted into the conditioned media was bound to gelatin-sepharose and evaluated by Western blot analysis for active MMP9 using pAb-1246 raised against the N-terminal neoepitope of active MMP9 (Table 5). In the absence of Compound α, pAb-1246 readily detected MMP9 with an electrophoretic mobility of approximately 80 kD. […] Inhibition occurred over a dose range with an IC50 of approximately 0.3 μM Compound α.

T2 sequence (P14780 20-707 limits assumed): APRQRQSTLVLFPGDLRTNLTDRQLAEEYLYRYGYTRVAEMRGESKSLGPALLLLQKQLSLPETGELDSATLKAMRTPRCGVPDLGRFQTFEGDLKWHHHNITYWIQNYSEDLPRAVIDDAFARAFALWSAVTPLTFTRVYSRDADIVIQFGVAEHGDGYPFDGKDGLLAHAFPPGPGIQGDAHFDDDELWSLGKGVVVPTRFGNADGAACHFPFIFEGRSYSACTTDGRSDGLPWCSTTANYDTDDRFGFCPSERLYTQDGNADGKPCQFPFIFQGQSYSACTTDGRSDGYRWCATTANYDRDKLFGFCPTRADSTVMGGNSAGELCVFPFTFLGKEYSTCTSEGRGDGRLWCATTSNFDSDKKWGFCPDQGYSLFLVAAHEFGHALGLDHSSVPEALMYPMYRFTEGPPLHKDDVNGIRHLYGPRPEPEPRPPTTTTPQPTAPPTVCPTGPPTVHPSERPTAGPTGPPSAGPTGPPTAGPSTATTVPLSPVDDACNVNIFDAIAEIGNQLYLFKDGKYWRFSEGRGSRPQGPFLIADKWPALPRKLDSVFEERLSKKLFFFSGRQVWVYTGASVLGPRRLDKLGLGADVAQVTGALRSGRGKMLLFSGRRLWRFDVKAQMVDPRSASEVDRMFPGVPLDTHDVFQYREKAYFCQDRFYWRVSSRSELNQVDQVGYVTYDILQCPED
T1 sequence (P50282 108-708): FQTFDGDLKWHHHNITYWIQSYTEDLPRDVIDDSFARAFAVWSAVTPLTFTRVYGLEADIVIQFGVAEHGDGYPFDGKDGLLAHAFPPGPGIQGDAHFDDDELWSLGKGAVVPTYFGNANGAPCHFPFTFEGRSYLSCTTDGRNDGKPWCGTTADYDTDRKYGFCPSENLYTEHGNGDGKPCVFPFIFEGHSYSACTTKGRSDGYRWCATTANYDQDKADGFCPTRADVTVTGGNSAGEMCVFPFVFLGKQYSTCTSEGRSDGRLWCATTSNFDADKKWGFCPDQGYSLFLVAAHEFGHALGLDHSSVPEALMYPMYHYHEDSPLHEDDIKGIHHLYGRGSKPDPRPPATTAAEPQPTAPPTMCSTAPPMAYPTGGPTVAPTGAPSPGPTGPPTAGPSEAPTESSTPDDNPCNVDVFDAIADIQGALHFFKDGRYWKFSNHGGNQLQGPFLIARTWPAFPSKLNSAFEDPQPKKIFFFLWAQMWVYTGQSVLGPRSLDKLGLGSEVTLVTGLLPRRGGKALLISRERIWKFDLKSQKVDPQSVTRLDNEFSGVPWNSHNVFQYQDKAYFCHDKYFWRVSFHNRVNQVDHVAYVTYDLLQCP

## Cc1nc(C)c(-c2csc(Nc3cc(S(N)(=O)=O)ccc3OC(C)C)n2)s1 [Compound α, 3-(2′,4′-Dimethyl-[4,5′]bithiazolyl-2-ylamino)-4-isopropoxy-benzenesulfonamide.HBr]
[1]; 5, 20, 50 mg/kg BID oral, Day 18-26
  ankle thickness measurements: dose-dependent decrease
[1]; 5, 20, 50 mg/kg BID oral, significant effects emerging at 20 mg/kg
  clinical score measurements: dose dependent decrease
[1]; Rattus norvegicus, 5 mg/kg BID oral, Day 18-26, read-out: Day 26 % Inh of disease associated increase in ankle thickness
  inhibition at 5 mg/kg: 27%
[1]; Rattus norvegicus, 20 mg/kg BID oral, Day 18-26, read-out: Day 26 % Inh of disease associated increase in ankle thickness
  inhibition at 20 mg/kg: 37%
[1]; Rattus norvegicus, 50 mg/kg BID oral, Day 18-26, read-out: Day 26 % Inh of disease associated increase in ankle thickness
  inhibition at 50 mg/kg: 46%
[2]
  abundance of proMMP9 in ankles: did not reduce
[3]
  Percent of total signal 80 kD: 7%
  Percent of total signal 86 kD: 47%
  Percent of total signal 100 kD: 46%
[3]; 30 nM elastase, 72 hrs, mAb-L51/82
  Signal Total: 91346 INT*mm^2
